# According to ChEMBL document CHEMBL2034869, “Mapping pilicide anti-virulence effect in Escherichia coli, a comprehensive structure-activity study” (Bioorg Med Chem, 2012):
# Tested on: Escherichia coli
# Experiment: Inhibition of type-1 pili-dependent biofilm formation in Escherichia coli […]
# Format: functional, organism-based
# Conditions: not given; call rule not given here
row,SMILES,EC50
1,COc1c(Cc2cccc3ccccc23)cc(=O)n2c1SC[C@H]2C(=O)[O-].[Li+],Not Active
2,O=C([O-])[C@@H]1CSc2c(C3CC3)c(Cn3ccc4ccccc43)cc(=O)n21.[Li+],Not Active
3,COc1c(Cc2ccc3c(c2)OCO3)cc(=O)n2c1SC[C@H]2C(=O)O,Not Active
4,COc1ccc2c(Cc3cc(=O)n4c(c3-c3ccccc3)SC[C@H]4C(=O)O)cc(=O)oc2c1,Not Active
5,O=C([O-])[C@@H]1CSc2c(C3CC3)c(Cn3nnc4ccccc43)cc(=O)n21.[Li+],Not Active
6,COc1c(Cc2csc3ccccc23)cc(=O)n2c1SC[C@H]2C(=O)[O-].[Li+],Not Active
7,O=C([O-])[C@@H]1CSc2c(-c3cccnc3)c(Cc3ccc4c(c3)OCO4)cc(=O)n21.[Li+],Not Active
8,COc1ccc2c(Cc3cc(=O)n4c(c3C3CC3)SC[C@H]4C(=O)O)cc(=O)oc2c1,Not Active
9,O=C([O-])[C@@H]1CSc2c(C3CC3)c(Cc3csc4ccccc34)cc(=O)n21.[Li+],Not Active
10,CC(C)c1c(Cn2nnc3ccccc32)cc(=O)n2c1SC[C@H]2C(=O)[O-].[Li+],Not Active
11,COc1ccc2c(Cc3cc(=O)n4c(c3-c3cccs3)SC[C@H]4C(=O)O)cc(=O)oc2c1,Not Active
12,O=C([O-])[C@@H]1CSc2c(-c3cccnc3)c(Cn3nnc4ccccc43)cc(=O)n21.[Li+],Not Active
13,Cc1cccc(OCc2cc(=O)n3c(c2-c2cccnc2)SC[C@H]3C(=O)[O-])c1C.[Li+],Not Active

# Same assay, conditions: Escherichia coli, UT189; read-out: EC50
row,SMILES,EC50 [µM]
1,CO[C@H]1Sc2c(-c3cn(C)c4ccccc34)c(COc3cccc4ccccc34)cc(=O)n2[C@@H]1C(=O)O,2.5
2,O=C(O)[C@@H]1CSc2c(-c3cccc(C(F)(F)F)c3)c(COc3cccc(Oc4ccccc4)c3)cc(=O)n21,4.3
3,Cc1cccc(CCc2cc(=O)n3c(c2-c2c[nH]c4ccccc24)SC[C@H]3C(=O)O)c1,74
4,Cc1cccc(-c2sc3c(-c4ccc5c(c4)OCO5)c(COc4cccc5ccccc45)c(CN4CCOCC4)c(=O)n3c2C(=O)O)c1,5
5,CO[C@H]1Sc2c(-c3cccs3)c(Cc3cccc4ccccc34)cc(=O)n2[C@@H]1C(=O)O,92
6,Cc1cccc(OCc2cc(=O)n3c(c2-c2ccccc2)SC[C@H]3C(=O)O)c1C,36
7,CC(C)c1c(Cc2cccc3ccccc23)cc(=O)n2c1SC[C@H]2C(=O)O,100
8,Cc1cccc(-c2sc3c(-c4ccc5c(c4)OCO5)c(COc4cccc5ccccc45)cc(=O)n3c2C(=O)O)c1,20
9,O=C(O)[C@@H]1CSc2c(-c3cccs3)c(Cc3cccc4ccccc34)c(CN3CCOCC3)c(=O)n21,88
10,Cc1cccc(OCc2cc(=O)n3c(c2-c2ccc4c(c2)OCO4)SC[C@H]3C(=O)O)c1C,27
11,O=C(O)[C@@H]1CSc2c(-c3cccs3)c(Cc3cccc4ccccc34)c(CO)c(=O)n21,250
12,O=C(O)[C@@H]1COc2c(-c3cccs3)c(Cc3cccc4ccccc34)cc(=O)n21,117
13,O=C(O)[C@@H]1CSc2c(-c3ccccc3)c(Cc3cccc4ccccc34)cc(=O)n21,40
14,CO[C@H]1Sc2c(-c3ccc4c(c3)OCO4)c(COc3cccc4ccccc34)cc(=O)n2[C@@H]1C(=O)O,30
15,O=C(O)[C@@H]1CSc2c(-c3cccs3)c(COc3cccc4ccccc34)cc(=O)n21,14
16,O=C(O)[C@@H]1CSc2c(-c3ccc4c(c3)OCO4)c(COc3cccc4ccccc34)c(CO)c(=O)n21,30
17,Cc1cccc(CCc2cc(=O)n3c(c2C(C)C)SC[C@H]3C(=O)O)c1,100
18,Cn1cc(-c2c(COc3cccc4ccccc34)c(CN3CCOCC3)c(=O)n3c2SC[C@H]3C(=O)O)c2ccccc21,18
19,Cc1cccc(CCc2cc(=O)n3c(c2-c2ccccc2)SC[C@H]3C(=O)O)c1,40
20,O=C(O)[C@@H]1CSc2c(-c3cccc(C(F)(F)F)c3)c(Cc3c4ccccc4cc4ccccc34)cc(=O)n21,3
21,O=C(O)[C@@H]1COc2c(-c3ccc4c(c3)OCO4)c(COc3cccc4ccccc34)cc(=O)n21,19
22,O=C(O)[C@@H]1CSc2c(-c3cccs3)c(Cc3cccc4ccccc34)cc(=O)n21,39

row,SMILES,EC50 [µM]
1,O=C(O)[C@@H]1CSc2c(-c3ccc4c(c3)OCO4)c(COc3cccc4ccccc34)cc(=O)n21,21
2,Cn1cc(-c2c(COc3cccc4ccccc34)cc(=O)n3c2SC[C@H]3C(=O)O)c2ccccc21,10
3,O=C(O)[C@@H]1CSc2c(-c3c[nH]c4ccccc34)c(Cc3ccc4c(c3)OCO4)cc(=O)n21,39
4,O=C(O)[C@@H]1CSc2c(-c3ccc4c(c3)OCO4)c(COc3cccc4ccccc34)c(CN3CCOCC3)c(=O)n21,32
5,Cn1cc(-c2c(COc3cccc4ccccc34)cc(=O)n3c2S[C@H](c2ccccc2)[C@H]3C(=O)O)c2ccccc21,1
6,O=C(O)[C@@H]1CSc2c(C3CC3)c(Cc3cccc4ccccc34)cc(=O)n21,250
7,O=C(O)[C@@H]1CSc2c(C3CC3)c(COc3cccc(Oc4ccccc4)c3)cc(=O)n21,39
8,O=C(O)[C@@H]1CSc2c(-c3ccc4c(c3)OCO4)c(Cc3csc4ccccc34)cc(=O)n21,67
9,Cc1cccc(-c2sc3c(-c4cn(C)c5ccccc45)c(COc4cccc5ccccc45)cc(=O)n3c2C(=O)O)c1,86
10,Cc1cccc(-c2sc3c(-c4cn(C)c5ccccc45)c(COc4cccc5ccccc45)c(CN4CCOCC4)c(=O)n3c2C(=O)O)c1,5
11,O=C(O)[C@@H]1[C@@H](c2ccccc2)Sc2c(-c3ccc4c(c3)OCO4)c(COc3cccc4ccccc34)cc(=O)n21,1.2
12,O=C(O)[C@@H]1[C@@H](c2ccccc2)Sc2c(-c3cccs3)c(Cc3cccc4ccccc34)cc(=O)n21,0.4
13,O=C(O)[C@@H]1CSc2c(-c3c[nH]c4ccccc34)c(COc3cccc4ccccc34)cc(=O)n21,12
14,Cn1cc(-c2c(COc3cccc4ccccc34)cc(=O)n3c2SC[C@H]3C(=O)NS(C)(=O)=O)c2ccccc21,9
15,Cn1cc(-c2c(COc3cccc4ccccc34)cc(=O)n3c2OC[C@H]3C(=O)O)c2ccccc21,18
16,Cn1cc(-c2c(Cc3cccc(COc4cccc5ccccc45)c3)cc(=O)n3c2SC[C@H]3C(=O)O)c2ccccc21,1.1
17,Cn1cc(-c2c(COc3cccc4ccccc34)c(CO)c(=O)n3c2SC[C@H]3C(=O)O)c2ccccc21,16
18,O=C(O)[C@@H]1CSc2c(-c3cccc(C(F)(F)F)c3)c(Cc3cccc(COc4cccc5ccccc45)c3)cc(=O)n21,1.9
19,O=C(O)[C@@H]1CSc2c(-c3c[nH]c4ccccc34)c(Cc3cccc4ccccc34)cc(=O)n21,31
20,Cn1cc(-c2c(COc3cccc(Oc4ccccc4)c3)cc(=O)n3c2SC[C@H]3C(=O)O)c2ccccc21,2.1
21,O=C(O)[C@@H]1CSc2c(C3CC3)c(Cc3cccc(COc4cccc5ccccc45)c3)cc(=O)n21,1.4
